In series [1] the test system is E. coli harboring FabI A116V. The experiment in a line: MIC against resistant mutants. The series is classed as cell-based. The note with it: Escherichia coli. How it is done:
Antimicrobial susceptibility tests. Susceptibility testing was performed in biological triplicate, using the micro-dilution broth method as outlined by the Clinical and Laboratory Standards Institute. Bacteria were cultured with cation-adjusted Muller-Hinton broth (Sigma-Aldrich, Cat #90922) in round-bottom 96-well plates (Corning, Cat #3788). Human serum (pooled gender, 0.2 μm filtered) was purchased from BioIVT (Hicksville, NY).
Selection of resistant mutants. Resistant mutants were selected via the large inoculum method.

In series [2] the test system is colistin-resistant E. coli. The series is described as follows: Sepsis survival and pneumonia bacterial burden models. The series is classed as in vivo. As to conditions: CD-1 mice, E. coli AR-0493, 50 mg/kg IV. As to the method: (§1) FIG. 4. In vivo efficacy of Debio-1452-NH3. A. Kaplan-Meier survival curve of mouse efficacy model of A. baumannii sepsis. Seven-week-old CD-1 mice were infected with A. baumannii W41979 (2.6×10^8 CFU/mouse, 15 mice per group) via IV injection. Mice were treated once-a-day for 4 days with FabI inhibitor (IV, 50 mg/kg). Log-rank test, p<0.0001. B. Acute pneumonia infections initiated in CD-1 mice with A. baumannii W41979 (2.1×10^8 CFU/mouse, intranasal) were treated with vehicle (8 mice) or FabI inhibitor (10 mice per group) 8, 30, and 48 h post-infection (IV, 50 mg/kg), and the bacterial burden was evaluated 72 h post-infection. C. […] Acute pneumonia infections initiated in CD-1 mice with K. pneumoniae BAA-1705 (4.4×10^8 CFU/mouse, intranasal) were treated with vehicle or FabI inhibitor (8 mice per group) 6, 23, and 45 h post-infection (IV, 50 mg/kg), and the bacterial burden was evaluated 72 h post-infection. […] Acute pneumonia infections initiated in CD-1 mice with E. coli AR-0493 (1.73×10^8 CFU/mouse, intranasal) were treated with vehicle or FabI inhibitor (8 mice per group) 6 and 28 h post-infection (IV, 50 mg/kg), and the bacterial burden was evaluated 48 h post-infection. […]
(§2) Acute pneumonia bacterial burden model. […] At 48 h post-infection (E. coli) or 72 h post-infection (A. baumannii and K. pneumoniae), CFU were determined in the lungs through serial dilutions. […]

Series [3] has as its system carbepenem-resistant K. pneumoniae. The description is as above. The series is classed as in vivo. The note with it: CD-1 mice, K. pneumoniae BAA-1705, 50 mg/kg IV. How it is done: as §1, §2
The test system of series [4] is E. cloacae, K. pneumoniae, and A. baumannii. The experiment in a line: MIC, micro-dilution broth method (text summary). The series is classed as cell-based. As to conditions: strains of E. cloacae. In general terms: In broth dilution the organism is exposed to a series of concentrations in liquid medium.
The test system of series [5] is A. baumannii W41979. The series is described as follows: Acute pneumonia bacterial burden model. The series is classed as in vivo. As to conditions: CD-1 mice, 50 mg/kg IV. As to the method:
as §1, §2

A further series in a line: Mouse MTD. As to the method: The protocol was approved by the IACUC at the University of Illinois at Urbana-Champaign (Protocol Number: 16144). In these studies, 10- to 12-week-old female C57BL/6 mice purchased from Charles River were used. The maximum tolerate dose (MTD) of a single compound was determined first. […] For multiple doses, the compound was given by daily IP for 5 consecutive days and mice were monitored for signs of toxicity for 1 month. MTD was the highest dosage with acceptable toxicity (e.g., <20% weight loss). Single dose MTDs were initially determined.

Series [6] concerns A. baumannii W41979. The experiment in a line: Bacterial sepsis survival model. The series is classed as in vivo. The note with it: CD-1 mice, 50 mg/kg IV once-per-day, four doses. As to the method: as §1, with “C. Kaplan-Meier survival curve of in vivo efficacy model of K. pneumonia sepsis. Seven-week-old CD-1 mice were infected with K. pneumoniae BAA-1705 (1.08×10^8 CFU/mouse, 15 mice per group) via IV injection.” for “C.”

Series [7] deals with Gram-negative ESKAPE pathogens and E. coli. The series is described as follows: MIC, micro-dilution broth method (text summary). The series is classed as cell-based.

Where a name gives a salt, the structure may show the parent alone. Some results are limits rather than exact numbers.

The MIC is the lowest concentration found to suppress growth. Read a low MIC as greater potency.

In the case of `Cc1c(CN(C)C(=O)/C=C/c2cnc3c(c2)CC(N)C(=O)N3)oc2ccccc12` (centres unmarked) [Debio-1452-NH3, (E)-3-(6-amino-7-oxo-5,6,7,8-tetrahydro-1,8-naphthyridin-3-yl)-N-methyl-N-((3-methylbenzofuran-2-yl)methyl)acrylamide hydrochloride], the results for the minimal inhibitory concentration (MIC) in series [1] and in series [4] were 64 µg/mL and 4 to 8 µg/mL, respectively. Further, the “efficacy in infected mice (in words)” value in series [2] and in series [3] was “efficacy” each time. Also, the “bacterial burden (in words)” value in the series on A. baumannii W41979 [5] is on record as “reduced bacterial burden”. Besides, the “dose well tolerated in mice” value in the series “Mouse MTD” (female, C57BL/6, mouse, in vivo, ip, 5 days) came to 50 mg/kg. For the same molecule, in “Mouse MTD” (mice, IP injection, single dose, monitored 2 weeks), the “single dose well tolerated” value came out at 50 mg/kg. Moreover, the “daily dosing well tolerated” value in “Mouse MTD” (mice, IP, daily for 5 consecutive days) turned out to be 50 mg/kg. The “survival (in words)” value with A. baumannii W41979 [6] is on record as “significantly increased survival”.

`Cc1c(CN(C)C(=O)/C=C/c2cnc3c(c2)CCC(=O)N3)oc2ccccc12` [Debio-1452, (E)-N-methyl-N-((3-methylbenzofuran-2-yl)methyl)-3-(7-oxo-5,6,7,8-tetrahydro-1,8-naphthyridin-3-yl)acrylamide, reference compound] returned an MIC in series [7] (Escherichia coli, Gram-negative ESKAPE pathogens and E. coli) greater than 32 µg/mL. Further, the “activity (in words)” value in series [7] (Gram-negatives with intact outer membranes) was “no activity”.

For the origin of these results see patent publication US12180198B2, “Ribocil C antibiotics effective for Gram-negative pathogens” (THE BOARD OF TRUSTEES OF THE UNIVERSITY OF ILLINOIS, priority 2018, dated 2024).
